Patent US20250268869A1, “METHODS OF USING A (THIAZOLYL)BENZENESULFONAMIDE DERIVATIVE” (Cyteir Therapeutics, Inc., priority 2022, published 2025)

How the values were obtained:
[1] = test system: Daudi (Burkitt Lymphoma) cells; assay: Intracellular Lactate Accumulation Assay (Lactate-Glo); type: cell-based; conditions: Homo sapiens, 2h treatment, read-out: LactateGlo EC50
Method: Intracellular lactate accumulation after a 2h treatment with compounds of the present invention was measured in Daudi (Burkitt Lymphoma) cells using the Lactate-Glo Assay (Promega).
Daudi cells were seeded at 7,500 cells per well in 150 μL of growth medium (RPMI-1640 with 2 mM GlutaMAX+10% FBS) in clear, 96-well, flat-bottom microplates, and incubated overnight (37° C., 5% CO2). Compounds of the present invention were added using an INTEGRA VIAFLO 96 (8 point, 3-fold serial dilution, top concentration 1, 10, or 20 μM, 0.4% final DMSO concentration). After a 2h incubation (37° C., 5% CO2) microplates containing cells were washed twice with 150 μL ice-cold PBS, resuspended in 25 μL ice-cold PBS containing 12.5 μL 0.6N HCl, and placed on a microplate shaker for 5 min to lyse the cells. Following lysis, 12.5 μL 1M Trizma base was added to neutralize the suspension, and microplates were returned to the microplate shaker for 1 min. Plates were sealed and stored at −20° C. until further processing. On the day of the assay, microplates were thawed for 45 min at room temperate and 50 μL Lactate Detection Reagent (prepared as specified by manufacturer) was added to each well. Microplates were placed on a plate shaker for 1 min and incubated at room temperature for 1h. Luminescence was measured using a BioTek Cytation 5 Multi-Mode Reader. Curve fitting and calculation of EC50 was performed using GraphPad Prism.

[2] = biological target: T1, human MCT1 (Homo sapiens, UniProt P53985); assay: MCT1 Transport Inhibition Assay; type: cell-based; conditions: MDCK-II cells overexpressing human MCT1 (with CD147), TPGA transport, LC-MS/MS; read-out: BioIVT MCT1 Transporter IC50
T1 construct: host or cells: MDCK-II cells, transiently co-transfected
T1 sequence (P53985 1-500): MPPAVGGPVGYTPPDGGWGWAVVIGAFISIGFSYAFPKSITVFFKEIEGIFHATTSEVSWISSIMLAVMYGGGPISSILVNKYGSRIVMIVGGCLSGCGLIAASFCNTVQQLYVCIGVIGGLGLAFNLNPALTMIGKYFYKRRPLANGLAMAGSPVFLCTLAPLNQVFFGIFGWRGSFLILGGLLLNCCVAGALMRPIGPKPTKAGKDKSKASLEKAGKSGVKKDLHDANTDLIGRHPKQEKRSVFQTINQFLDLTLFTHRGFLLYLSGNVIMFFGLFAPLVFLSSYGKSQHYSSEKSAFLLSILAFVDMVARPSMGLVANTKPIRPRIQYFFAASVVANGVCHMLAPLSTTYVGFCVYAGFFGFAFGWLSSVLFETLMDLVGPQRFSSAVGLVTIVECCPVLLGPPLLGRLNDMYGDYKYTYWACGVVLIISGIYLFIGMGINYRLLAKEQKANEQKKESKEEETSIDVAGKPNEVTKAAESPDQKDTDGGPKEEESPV
T1 sequence (P35613 140-385 partner limits assumed): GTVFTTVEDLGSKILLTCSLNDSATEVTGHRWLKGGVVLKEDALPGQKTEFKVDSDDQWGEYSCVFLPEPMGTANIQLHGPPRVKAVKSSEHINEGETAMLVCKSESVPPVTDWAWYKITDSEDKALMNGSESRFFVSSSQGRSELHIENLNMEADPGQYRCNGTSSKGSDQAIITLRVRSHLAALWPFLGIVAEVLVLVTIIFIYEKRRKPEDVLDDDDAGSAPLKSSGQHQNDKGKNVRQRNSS
Method: Inhibition of MCT1 transport after treatment with compounds of the present invention was measured in MDCK-II cells that overexpress human MCT1 by quantifying the transport of 2-Thiophene-glycoxylic acid (TPGA) into cells using LC-MS/MS.
MDCK-II cells are seeded at 60,000 cells per well in growth medium (low-glucose DMEM+10% FBS) in 96-well trans-well membrane plates, and incubated overnight (37° C., 5% CO2). Cells were co-transfected with mammalian expression constructs coding for MCT1 and CD147 at a 2:1 ratio or an empty vector control (GFP) and then incubated for 48h (37° C., 5% CO2). Cells were washed 3 times with HBSS and cells were preincubated with inhibitors or vehicle control at room temperature in HBSS for 30 min with orbital shaking (60 rpm). HBSS was aspirated from the wells and replaced with HBSS with 25 mM Bis-Tris pH5.5+inhibitor or vehicle control+500 μM TPGA and incubated for 1 min at room temperature with orbital shaking (60 rpm). Both the apical and basolateral side of the trans-well insert were washed 4 times with ice-cold PBS. Cells were lysed with 60 μL of cell extraction solution, and the amount of TPGA in each well was quantified in triplicate by LC-MS/MS. The MCT1-mediated uptake rate was calculated using the following equation: […]
Percent inhibition for each concentration of inhibitor tested was calculated using the following equation: […]
Curves were fit to the calculated percent inhibition for each inhibitor, and the IC50 representing the concentration of inhibitor at which MCT1 is inhibited by 50% was calculated from this curve.

Row | Compound | EC50 [1] | IC50 [2]
1 | CC(C)OC(=O)NC1CCC(c2ncc(-c3ccc(N(C)C(=O)NCc4ccccc4)cc3S(=O)(=O)NC(C)(C)CO)s2)CC1 (stereo not shown) [Compound 176] | > 5000 nM | 
2 | CCNS(=O)(=O)c1cc(Nc2ccn[nH]2)ccc1-c1cnc([C@H]2CC[C@H](NC(=O)OC(C)C)CC2)s1 [Compound 121, isopropyl trans-N-[4-[5-[2-(ethylsulfamoyl)-4-[(1H-pyrazol-5-yl)amino]phenyl]thiazol-2-yl]cyclohexyl]carbamate] | < 50 nM | 
3 | CC(C)OC(=O)Nc1ccc(-c2cnc(C3CCC(NC(=O)OC(C)C)CC3)s2)c(S(=O)(=O)NCCN(C)C)c1 (stereo not shown) [Compound 175] | 1000 to 5000 nM | 
4 | O=C(Nc1ccccc1C(=O)O)c1cc(S(=O)(=O)c2ccccc2)ccc1Cl [BAY8002] |  | 50 to 150 nM
5 | Cc1[nH]nc(C(F)(F)F)c1Cc1sc2c(c1C(=O)N1C[C@](C)(O)CO1)c(=O)n(C)c(=O)n2C(C)C [AZD3965] |  | 50 to 150 nM
6 | CCNS(=O)(=O)c1cc(Nc2ccc(CC)nn2)ccc1-c1cnc([C@H]2CC[C@H](NC(=O)OC(C)C)CC2)s1 [Compound 157, isopropyl trans-N-[4-[5-[4-[(6-ethylpyridazin-3-yl)amino]-2-(ethylsulfamoyl)phenyl]thiazol-2-yl]cyclohexyl]carbamate] | < 50 nM | 50 to 150 nM
